Legend:
[1] = set-up: species or system Long-Evans female rats; conditions: rat, in vivo
Description: Ten Long-Evans female rats were divided into two groups of five each. The rats were fed Purina® lab chow mixed with CDCA or dried hog bile. The dried hog bile contains approximately 25% CDCA and approximately 40% HDCA and was mixed in the feed at four times the concentration as CDCA so that each group of rats would receive approximately 600 mg. CDCA/kg./day. Following a 2 week treatment, the 10 rats plus five control rats were sacrificed and the blood collected for liver enzyme determinations.

[2] = Pharmacological studies employing rats: liver damage and safening effect (summary statements); type: in vivo
Source text: The compositions are generally administered in a ratio of CDCA to HDCA in the range of from about 0.7 to about 2.0 and, preferably in the range of from about 0.8 to about 1.5. […] Hog bile generally contains from about 10 to about 50% CDCA and from about 10 to about 50% of HDCA in addition to other bile acids.

[3] = CDCA alone, or HDCA with CDCA relative to CDCA

C[C@H](CCC(=O)O)[C@H]1CC[C@H]2[C@@H]3[C@H](O)C[C@@H]4C[C@H](O)CC[C@]4(C)[C@H]3CC[C@]12C [CDCA, 3α, 7α-dihydroxy-5β-cholanic acid]
Bodyweights, Week 0 [1]: 284.6 gms
Bodyweights, Week 1 [1]: 256.4 gms
Feed Consumption, Week 0 [1]: 18.6 gms/da
Feed Consumption, Week 2 [1]: 11.7 gms/da
periportal hepatitis ([2]; CDCA alone): slight to mild periportal hepatitis
alkaline phosphatase (alk. phos.) in the blood [2, 3]: elevations
serum glutamic pyruvic transaminase (SGPT) in the blood [2, 3]: elevations
serum glutamic-oxaloacetic transaminase (SGOT) in the blood [2, 3]: elevations
nuclear enlargement of the hepatocytes ([2]; CDCA alone, slight to mild periportal hepatitis also seen): nuclear enlargement of the hepatocytes

From patent publication US4079133A, “Safer method for dissolving gallstones combining hyodeoxycholic acid with chenodeoxycholic acids” (Warren-Teed Laboratories, Inc., priority 1976, dated 1978)
